Assay [1] concerns bladder detrusor smooth muscle. Briefly: first in vitro test: relaxation of guinea pig bladder detrusor strips contracted with 15 mM KCl. Format: cell-based, Male albino Hartley guinea pigs. The note with it: for IC50: Cavia porcellus; for relaxation and reduction of the myogenic activity of guinea pig detrusor strips: first test, calcium channel blockers. On the procedure:
Male albino Hartley guinea pigs (450-500 g) are sacrificed by carbon dioxide induced asphyxiation and quickly exsanguinated. The lower abdominal cavity is opened and the urinary bladder isolated. […] The solution is warmed to 37° C. and gassed with 95% O2 and 5% CO2. With vigorous bubbling, the solution should have a pH value close to 7.4.
The dome of the washed bladder is cut off and discarded; the remaining bladder is placed on a gauze in a Petri dish containing the buffer solution. A mid-ventral longitudinal cut is made with scissors to open the bladder. The strips cut from the dome and the base edge are discarded. The remaining detrusor mid-section is cut into two horizontal strips with an approximate width of 2.0 mm. These two strips are further bisected at the mid-dorsal section, creating four strip of similar dimensions. Each strip thus contains both dorsal and ventral portions of the bladder.
The two ends of each individual strip are tied to a glass support rod and a force-displacement transducer (Grass model FR03), respectively, with 4-0 black braided silk suture.
The transducers are connected to a polygraph (Grass model 7E), which is calibrated at 5 mV/cm and the calibration checked for linearity with weights of 5 and 0.5 grams. The analog electrical output signals from the polygraph are digitized by a Modular Instrument Micro 5000 signal processing system using Biowindow Data Acquisition Software, which is run under the Microsoft OS/2 operating system with an IBM-compatible PC.
The detrusor strips on the glass rod are secured in 20 ml tissue baths and allowed to equilibrate under a preload tension of 2 grams. During the following 45 to 60 min equilibration period, the tissue is washed with fresh buffer solution at 15 min interval, with the tension adjusted, if necessary, to 2 grams prior to washing. After the equilibration period, a priming dose of 15 mM KCl (total concentration in the bath) is applied. The tissue is washed after 10 min and washed twice more at 15 min intervals with tension adjusted to 2 grams before each washing.
When the tissue relaxes to a steady state after the final washing, 15 mM KCl is again applied. Once the myogenic activity of the tissue reaches a steady state, the baseline data are acquired through the Biowindows Data Acquisition System by averaging 5 min of the myogenic data sampled at 32 Hz. Once the baseline is acquired, the experimental compounds are dosed in a cumulative manner in half log unit increments. The contact time for each dose is 10 min with the final 5 min being the period of time that the dose reponse data are required. […] The effect of the compound at each dose is expressed as % of the maximum inhibitory response, which is further normalized with respect to the corresponding effect of the compound vehicle control. The normalized response is then used to derive the IC50 of the relaxant activity of the compound through the application of Marquardt' s nonlinear iterative curve fitting technique to a standard dose-response function.

For assay [2], the system named is detrusor smooth muscle. The assay is described as follows: second in vitro test: relaxation of guinea pig detrusor strips contracted with 80 mM KCl. Type of assay: cell-based. The note with it: for relaxation and reduction of the myogenic activity of guinea pig detrusor strips: second test, calcium channel blockers; for potency in the second test relative to the first test: 80 mM KCl vs 15 mM KCl. The protocol: This second in vitro test is similar to the one described above with regard to tissue preparation and data acquisition. However, the following exceptions are noted. In this second test, the contraction of the detrusor strips during priming and after the equilibration period is achieved with 80 mM instead of 15 mM KCl (total concentration in the bath).

Where [3] appears, read: ability to relax bladder smooth muscle, comparison with non-fluorinated analogs, read-out: IC50.

Read-outs that look alike come from different tables or passages of the source.

In the case of `CC1(C)CN(c2cccc[n+]2[O-])c2cc(S(=O)(=O)c3ccccc3)ccc2O1` [*], the IC50 in assay [1] (setting [3]) was 4100 nM.

For the compound `CC1(C)Oc2ccc(C#N)cc2C(N2CCCC2=O)C1O` (stereo not drawn) [cromakalim], the IC50 in assay [1] (putative potassium channel opener, read-out: relaxant activity IC50 in the first test) was 600 to 900 nM. Besides, in assay [2] (80 mM KCl, at concentrations as high as 30 μM), the “relaxant activity in the second test” value is listed as “insignificant relaxant activity”. With `COC(=O)C1=C(C)NC(C)=C(C(=O)OC)C1c1ccccc1[N+](=O)[O-]` [nifedipine], in assay [2] (80 mM KCl), the “relaxation and reduction of the myogenic activity of guinea pig detrusor strips” value (“relaxation and reduction” below) is “able to relax and reduce the myogenic activity”. As for `COC(=O)C1=C(C)NC(C)=C(C(=O)OC(C)C)C1c1cccc2nonc12` (stereo not drawn) [isradipine], the “relaxation and reduction” value in assay [1] is “able to relax and reduce the myogenic activity”; in assay [2] (80 mM KCl) it was “able to relax and reduce the myogenic activity”. The “potency in the second test relative to the first test” value in assay [2] is “more potent in the second test”. In the case of `COCCOC(=O)C1=C(C)NC(C)=C(C(=O)OC(C)C)C1c1cccc([N+](=O)[O-])c1` (stereo not drawn) [nimodipine], the “relaxation and reduction” value in assay [1] is “able to relax and reduce the myogenic activity”; in assay [2] (80 mM KCl), “able to relax and reduce the myogenic activity”. For the same compound, the “potency in the second test relative to the first test” value in assay [2] is on record as “more potent in the second test”. In the case of `O=S(=O)(c1ccccc1)c1ccc2c(c1)N(c1cccc[n+]1[O-])CC(CF)(CF)O2` [Example 5, 2-(2,2-(bis)Fluoromethyl-6-phenylsulfonyl-3,4-dihydro-2H-1,4-benzoxazine-4-yl)pyridine-N-oxide], in assay [1] (setting [3]), the IC50 is 2250 nM. Consider `O=S(=O)(c1ccccc1)c1ccc2c(c1)N(c1cccc[n+]1[O-])CC(C(F)F)(C(F)F)O2` [Example 6, 2-(2,2-bis(Difluoromethyl)-6-phenylsulfonyl-3,4-dihydro-2H-1,4-benzoxazine-4-yl)pyridine-N-oxide], for which the IC50 in assay [1] (setting [3]) came to 360 nM.

Regarding `O=[N+]([O-])c1ccc2c(c1)N(c1cccc[n+]1[O-])CC(CF)(CF)O2` [Example 4, 2-(2,2-(bis)Fluoromethyl-6-nitro-3,4-dihydro-2-H-1,4-benzoxazine-4-yl)pyridine-N-oxide], the IC50 in assay [1] (setting [3]) stood at 25 nM. Still for that read-out and setting: then `O=[N+]([O-])c1ccc2c(c1)N(c1cccc[n+]1[O-])CC(C(F)F)(C(F)F)O2` [Example 8, 2-(2,2-bis(Difluoromethyl)-6-nitro-3,4-dihydro-2H-1,4-benzoxazine-4-yl)pyridine-N-oxide], with 7 nM. For `CC1(C(F)(F)F)CN(c2cccc[n+]2[O-])c2cc(S(=O)(=O)c3ccccc3)ccc2O1` (stereo not drawn) [Example 1, 2-(2-Methyl-2-trifluoromethyl-6-phenylsulfonyl-3,4-dihydro-2H-1,4-benzoxazin-4-yl)pyridine-N-oxide], the IC50 in assay [1] (setting [3]) was 540 nM; in assay [1] (guinea pig detrusor strips, read-out: IC50 (50% decrease in the in vitro contraction of the bladder tissue)), 540 nM. Consider `COc1ccc(CCN(C)CCCC(C#N)(c2ccc(OC)c(OC)c2)C(C)C)cc1OC` (stereo not drawn) [verapamil], for which the “relaxation and reduction” value in assay [1] was “able to relax and reduce the myogenic activity”; in assay [2] (80 mM KCl), “able to relax and reduce the myogenic activity”. Besides, the “potency in the second test relative to the first test” value in assay [2] is “more potent in the second test”. Turning to `COc1ccc(Cc2nccc3cc(OC)c(OC)cc23)cc1OC` [papaverine], the “abolition of the KCl-induced tension” value in assay [2] (80 mM KCl, 300 μM, maximum response) is reported as “totally abolished”. Consider `CC1(C)CN(c2cccc[n+]2[O-])c2cc([N+](=O)[O-])ccc2O1` [@], for which the IC50 in assay [1] (setting [3]) was 74 nM.

Usually IC50 stands for the point on the concentration scale where inhibition reaches its midpoint.

Values taken from patent US5486515A, “2-fluoroalkyl-1,4-benzoxaxines as potassium channel mediators” (Zeneca Limited, priority 1993, dated 1996).
